Common to all, as to assay type: biochemical
Experiment [1] deals with human JAK1 (a.a. 837-1142) catalytic domain. In words: In vitro JAK kinase assay (HTRF, phosphorylation of a biotinylated peptide), JAK1. The settings on record: ratio of JAK2 IC50 to JAK1 IC50, 1 mM ATP. The procedure:
(§1) Compounds herein were tested for inhibitory activity of JAK targets according to the following in vitro assay described in Park et al., Analytical Biochemistry 1999, 269, 94-104. The catalytic domains of human JAK1 (a.a. 837-1142) and JAK2 (a.a. 828-1132) with an N-terminal His tag were expressed using baculovirus in insect cells and purified. The catalytic activity of JAK1 and JAK2 was assayed by measuring the phosphorylation of a biotinylated peptide. The phosphorylated peptide was detected by homogenous time resolved fluorescence (HTRF). IC50s of compounds were measured for each kinase in the 40 microL reactions that contain the enzyme, ATP and 500 nM peptide in 50 mM Tris (pH 7.8) buffer with 100 mM NaCl, 5 mM DTT, and 0.1 mg/mL (0.01%) BSA. For the 1 mM IC50 measurements, ATP concentration in the reactions was 1 mM. Reactions were carried out at room temperature for 1 hour and then stopped with 20 μL 45 mM EDTA, 300 nM SA-APC, 6 nM Eu-Py20 in assay buffer (Perkin Elmer, Boston, Mass.). Binding to the Europium labeled antibody took place for 40 minutes and HTRF signal was measured on a Fusion plate reader (Perkin Elmer, Boston, Mass.). See Table A for data related to compounds of the Examples (at 1 mM). Data is indicated as ranges: <20 nM (+), 20 to <150 nM (++), 150 to 500 nM (+++).

Experiment [2] deals with T1, human JAK1 (a.a. 837-1142) catalytic domain (Homo sapiens, UniProt P23458).
T1 construct: human JAK1 (a.a. 837-1142) and JAK2 (a.a. 828-1132); His tag (N); made in house; host or cells: insect cells (baculovirus)
The experiment is described as above. The settings on record: 1 mM ATP. The procedure: as §1

For experiment [3], the target named is T2, human JAK2 (a.a. 828-1132) catalytic domain (Homo sapiens, UniProt O60674).
T2 construct: human JAK1 (a.a. 837-1142) and JAK2 (a.a. 828-1132); His tag (N); made in house; host or cells: insect cells (baculovirus)
In words: In vitro JAK kinase assay (HTRF, phosphorylation of a biotinylated peptide), JAK2. The settings on record: 1 mM ATP. The procedure: as §1
(In TR-FRET formats the signal depends on donor and acceptor labels being close together.)

Counter-ions that a name gives are not always drawn.

T1 sequence (P23458 849-1154): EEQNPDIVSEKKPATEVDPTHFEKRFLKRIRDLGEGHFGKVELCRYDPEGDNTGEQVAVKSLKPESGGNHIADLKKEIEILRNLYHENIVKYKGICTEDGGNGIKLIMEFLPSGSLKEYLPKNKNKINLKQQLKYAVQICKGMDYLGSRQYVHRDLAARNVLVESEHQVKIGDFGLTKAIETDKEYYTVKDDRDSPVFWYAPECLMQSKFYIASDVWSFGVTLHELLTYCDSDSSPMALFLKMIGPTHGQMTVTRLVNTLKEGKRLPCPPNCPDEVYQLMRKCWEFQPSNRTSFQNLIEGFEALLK
T2 sequence (O60674 828-1132): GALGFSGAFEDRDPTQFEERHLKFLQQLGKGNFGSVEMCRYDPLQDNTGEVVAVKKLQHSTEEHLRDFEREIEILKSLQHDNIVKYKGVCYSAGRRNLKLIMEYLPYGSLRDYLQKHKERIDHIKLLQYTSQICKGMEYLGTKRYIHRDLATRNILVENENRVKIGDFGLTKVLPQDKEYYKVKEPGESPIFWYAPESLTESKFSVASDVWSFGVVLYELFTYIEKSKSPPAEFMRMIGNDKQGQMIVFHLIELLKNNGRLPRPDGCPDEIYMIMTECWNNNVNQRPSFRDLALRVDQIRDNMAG

Take `CN(CCO)Cc1cc(OC2CCN([C@H]3C[C@](CC#N)(n4cc(-c5ncnc6[nH]ccc56)cn4)C3)CC2)nc(C(F)(F)F)c1` [Example 17, {trans-3-(4-{[4-{[(2-hydroxyethyl)(methyl)amino]methyl}-6-(trifluoromethyl)pyridin-2-yl]oxy}piperidin-1-yl)-1-[4-(7H-pyrrolo[2,3-d]pyrimidin-4-yl)-1H-pyrazol-1-yl]cyclobutyl}acetonitrile]: in experiment [1], the JAK2/JAK1 was >10. The IC50 (commonly the concentration at which inhibition is half-maximal) in experiment [2] is < 20 nM; in experiment [3] it was 20 to 150 nM.
For `N#CC[C@]1(n2cc(-c3ncnc4[nH]ccc34)cn2)C[C@H](N2CCC(Oc3cc(CN[C@H]4C[C@@H](O)C4)cc(C(F)(F)F)n3)CC2)C1` [Example 18, {trans-3-(4-{[4-{[(cis-3-hydroxycyclobutyl)amino]methyl}-6-(trifluoromethyl)pyridin-2-yl]oxy}piperidin-1-yl)-1-[4-(7H-pyrrolo[2,3-d]pyrimidin-4-yl)-1H-pyrazol-1-yl]cyclobutyl}acetonitrile 3.6 x trifluoroacetate salt], the JAK2/JAK1 in experiment [1] is >10. Besides, the IC50 in experiment [2] is < 20 nM; in experiment [3], 20 to 150 nM.
On the same counts, the results for `N#CC[C@]1(n2cc(-c3ncnc4[nH]ccc34)cn2)C[C@H](N2CCC(Oc3cc(CCO)cc(C(F)(F)F)n3)CC2)C1` [Example 20, {trans-3-(4-{[4-(2-hydroxyethyl)-6-(trifluoromethyl)pyridin-2-yl]oxy}piperidin-1-yl)-1-[4-(7H-pyrrolo[2,3-d]pyrimidin-4-yl)-1H-pyrazol-1-yl]cyclobutyl}acetonitrile] are >10, < 20 nM and 20 to 150 nM.
Taken in the same sequence, the figures for `N#CC[C@]1(n2cc(-c3ccnc4[nH]ccc34)cn2)C[C@H](N2CCC(Oc3cc(CNCCO)cc(C(F)(F)F)n3)CC2)C1` [Example 21, {trans-3-(4-{[4-{[(2-hydroxyethyl)amino]methyl}-6-(trifluoromethyl)pyridin-2-yl]oxy}piperidin-1-yl)-1-[4-(1H-pyrrolo[2,3-b]pyridin-4-yl)-1H-pyrazol-1-yl]cyclobutyl}acetonitrile] were >10, < 20 nM and 150 to 500 nM.
On the same counts, the results for `N#CC[C@]1(n2cc(-c3ncnc4[nH]ccc34)cn2)C[C@H](N2CCC(Oc3cc(Cn4ccnc4)cc(C(F)(F)F)n3)CC2)C1` [Example 22, {trans-3-(4-{[4-(1H-imidazol-1-ylmethyl)-6-(trifluoromethyl)pyridin-2-yl]oxy}piperidin-1-yl)-1-[4-(7H-pyrrolo[2,3-d]pyrimidin-4-yl)-1H-pyrazol-1-yl]cyclobutyl}acetonitrile] are >10, < 20 nM and 20 to 150 nM.
Consider `N#CC[C@]1(n2cc(-c3ncnc4[nH]ccc34)cn2)C[C@H](N2CCC(Oc3cc(Cn4cncn4)cc(C(F)(F)F)n3)CC2)C1` [Example 23, [trans-1-[4-(7H-pyrrolo[2,3-d]pyrimidin-4-yl)-1H-pyrazol-1-yl]-3-(4-{[4-(1H-1,2,4-triazol-1-ylmethyl)-6-(trifluoromethyl)pyridin-2-yl]oxy}piperidin-1-yl)cyclobutyl]acetonitrile], for which the JAK2/JAK1 in experiment [1] is >10. The IC50 in experiment [2] was < 20 nM; in experiment [3], 20 to 150 nM.
Consider `N#CC[C@]1(n2cc(-c3ncnc4[nH]ccc34)cn2)C[C@H](N2CCC(Oc3cc(Cn4cnnc4)cc(C(F)(F)F)n3)CC2)C1` [Example 24, [trans-1-[4-(7H-pyrrolo[2,3-d]pyrimidin-4-yl)-1H-pyrazol-1-yl]-3-(4-{[4-(4H-1,2,4-triazol-4-ylmethyl)-6-(trifluoromethyl)pyridin-2-yl]oxy}piperidin-1-yl)cyclobutyl]acetonitrile], for which the JAK2/JAK1 in experiment [1] is listed as >10. Moreover, the IC50 in experiment [2] was < 20 nM; in experiment [3], 20 to 150 nM.
On the same counts, the results for `N#CC[C@]1(n2cc(-c3ncnc4[nH]ccc34)cn2)C[C@H](N2CCC(Oc3cc(Cn4cccn4)cc(C(F)(F)F)n3)CC2)C1` [Example 25, {trans-3-(4-{[4-(1H-pyrazol-1-ylmethyl)-6-(trifluoromethyl)pyridin-2-yl]oxy}piperidin-1-yl)-1-[4-(7H-pyrrolo[2,3-d]pyrimidin-4-yl)-1H-pyrazol-1-yl]cyclobutyl}acetonitrile] are >10, < 20 nM and 150 to 500 nM.
On to `CC1(C)CN(C(=O)c2cc(OC3CCN([C@H]4C[C@](CC#N)(n5cc(-c6ncnc7[nH]ccc67)cn5)C4)CC3)nc(C(F)(F)F)c2)C1` [Example 26, {trans-3-(4-{[4-[(3,3-dimethylazetidin-1-yl)carbonyl]-6-(trifluoromethyl)pyridin-2-yl]oxy}piperidin-1-yl)-1-[4-(7H-pyrrolo[2,3-d]pyrimidin-4-yl)-1H-pyrazol-1-yl]cyclobutyl}acetonitrile], for which the JAK2/JAK1 in experiment [1] is on record as >10. Moreover, the results for the IC50 in experiment [2] and in experiment [3] were < 20 nM and 150 to 500 nM, respectively.
For the molecule `N#CC[C@]1(n2cc(-c3ncnc4[nH]ccc34)cn2)C[C@H](N2CCC(Nc3cc(CO)nc(C(F)(F)F)n3)CC2)C1` [Example 27, {trans-3-(4-{[6-(hydroxymethyl)-2-(trifluoromethyl)pyrimidin-4-yl]amino}piperidin-1-yl)-1-[4-(7H-pyrrolo[2,3-d]pyrimidin-4-yl)-1H-pyrazol-1-yl]cyclobutyl}acetonitrile], in experiment [1], the JAK2/JAK1 is listed as >10. In addition, the IC50 in experiment [2] is < 20 nM; in experiment [3] it was 20 to 150 nM.
Taken in the same sequence, the figures for `CCNCc1cc(NC2CCN([C@H]3C[C@](CC#N)(n4cc(-c5ncnc6[nH]ccc56)cn4)C3)CC2)nc(C(F)(F)F)n1` [Example 28, {trans-3-(4-{[6-[(ethylamino)methyl]-2-(trifluoromethyl)pyrimidin-4-yl]amino}piperidin-1-yl)-1-[4-(7H-pyrrolo[2,3-d]pyrimidin-4-yl)-1H-pyrazol-1-yl]cyclobutyl}acetonitrile] were >10, < 20 nM and 20 to 150 nM.
On the same counts, the results for `N#CC[C@]1(n2cc(-c3ncnc4[nH]ccc34)cn2)C[C@H](N2CCC(Nc3cc(CNCCO)nc(C(F)(F)F)n3)CC2)C1` [Example 29, {trans-3-(4-{[6-{[(2-hydroxyethyl)amino]methyl}-2-(trifluoromethyl)pyrimidin-4-yl]amino}piperidin-1-yl)-1-[4-(7H-pyrrolo[2,3-d]pyrimidin-4-yl)-1H-pyrazol-1-yl]cyclobutyl}acetonitrile] are >10, < 20 nM and 20 to 150 nM.
`N#CC[C@]1(n2cc(-c3ncnc4[nH]ccc34)cn2)C[C@H](N2CCC(Nc3cc(CN[C@H]4C[C@H](O)C4)nc(C(F)(F)F)n3)CC2)C1` [Example 30, {trans-3-(4-{[6-{[(trans-3-hydroxycyclobutyl)amino]methyl}-2-(trifluoromethyl)pyrimidin-4-yl]amino}piperidin-1-yl)-1-[4-(7H-pyrrolo[2,3-d]pyrimidin-4-yl)-1H-pyrazol-1-yl]cyclobutyl}acetonitrile]: the JAK2/JAK1 in experiment [1] is given as >10. Moreover, the values for the IC50 in experiment [2] and in experiment [3] were < 20 nM and 20 to 150 nM, respectively.
On the same counts, the results for `N#CC[C@]1(n2cc(-c3ncnc4[nH]ccc34)cn2)C[C@H](N2CCC(Nc3cc(CO)cc(C(F)(F)F)n3)CC2)C1` [Example 31, {trans-3-(4-{[4-(hydroxymethyl)-6-(trifluoromethyl)pyridin-2-yl]amino}piperidin-1-yl)-1-[4-(7H-pyrrolo[2,3-d]pyrimidin-4-yl)-1H-pyrazol-1-yl]cyclobutyl}acetonitrile] are >10, < 20 nM and 20 to 150 nM.
As for `CCNCc1cc(NC2CCN([C@H]3C[C@](CC#N)(n4cc(-c5ncnc6[nH]ccc56)cn4)C3)CC2)nc(C(F)(F)F)c1` [Example 32, {trans-3-(4-{[4-[(ethylamino)methyl]-6-(trifluoromethyl)pyridin-2-yl]amino}piperidin-1-yl)-1-[4-(7H-pyrrolo[2,3-d]pyrimidin-4-yl)-1H-pyrazol-1-yl]cyclobutyl}acetonitrile], the JAK2/JAK1 in experiment [1] is >10. Moreover, the IC50 in experiment [2] was < 20 nM; in experiment [3], 20 to 150 nM.
Taken in the same sequence, the figures for `N#CC[C@]1(n2cc(-c3ncnc4[nH]ccc34)cn2)C[C@H](N2CCC(Nc3cc(CNCCO)cc(C(F)(F)F)n3)CC2)C1` [Example 33, {trans-3-(4-{[4-{[(2-hydroxyethyl)amino]methyl}-6-(trifluoromethyl)pyridin-2-yl]amino}piperidin-1-yl)-1-[4-(7H-pyrrolo[2,3-d]pyrimidin-4-yl)-1H-pyrazol-1-yl]cyclobutyl}acetonitrile] were >10, < 20 nM and 20 to 150 nM.

The values are drawn from US9193733B2, “Piperidinylcyclobutyl substituted pyrrolopyridine and pyrrolopyrimidine derivatives as JAK inhibitors” (Incyte Corporation, priority 2012, dated 2015).
